Measurements from PMC13072876 (International Journal of Molecular Sciences, 2026).
Converted amounts (≈) assume the structure as drawn.

Experiment: Water solubility, experimental
Format: physicochemical
Text: Table 5 Water solubility of tested compounds experimental [mg/mL] and predicted by the SwissADME web tool. | column: Water Solubility / [mg/mL]

Structure (SMILES) | solubility (water) | Water solubility experimental (experimental)
COc1cccc2c1C(=O)c1c(O)c3c(c(O)c1C2=O)C[C@@](O)(C(=O)CO)C[C@@H]3O[C@H]1C[C@H](N)[C@H](O)[C@H](C)O1 [doxorubicin] | 50 mg/mL (≈ 92 mM) | 
COc1cc2c(c(OC)c1OC)-c1ccc(OC)c(=O)cc1[C@@H](NC(C)=O)CC2 [compound 1, colchicine] |  | 45 mg/mL
